According to the supplement of paper PMC10307832:

Legend:
Assay in all cases: relative viability (nuclei count vs DMSO), 5 days (fraction); higher = more cells survive
Dabrafenib + Bortezomib = compound: CC(C)(C)c1nc(-c2cccc(NS(=O)(=O)c3c(F)cccc3F)c2F)c(-c2ccnc(N)n2)s1 [Dabrafenib] + CC(C)C[C@H](NC(=O)[C@H](Cc1ccccc1)NC(=O)c1cnccn1)B(O)O [Bortezomib] (partner 0.002 µM)
In short: (§1)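 A single step with final 0.05% Triton X-100, 1% formaldehyde and 1 ug/ml Hoechst fixed the cells and stained nuclei 5 days after treatment. Lung cancer cell lines in 1536-well plates had been treated by pin tool the day after seeding with one drug alone or a fixed anchor-drug dose plus five library-drug doses (not always all listed) in √10 steps, and nuclei were counted on 4× images. Relative viability is the ratio of nuclei in treated wells to nuclei in vehicle wells, taken as the median of duplicate plates.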

Dabrafenib + Pictilisib = compound: CC(C)(C)c1nc(-c2cccc(NS(=O)(=O)c3c(F)cccc3F)c2F)c(-c2ccnc(N)n2)s1 [Dabrafenib] + CS(=O)(=O)N1CCN(Cc2cc3nc(-c4cccc5[nH]ncc45)nc(N4CCOCC4)c3s2)CC1 [Pictilisib] (partner 1 µM)
In short: as §1

Dabrafenib + Olaparib = compound: CC(C)(C)c1nc(-c2cccc(NS(=O)(=O)c3c(F)cccc3F)c2F)c(-c2ccnc(N)n2)s1 [Dabrafenib] + O=C(c1cc(Cc2n[nH]c(=O)c3ccccc23)ccc1F)N1CCN(C(=O)C2CC2)CC1 [Olaparib] (partner 8 µM)
In short: as §1

VX-702 + Dasatinib = compound: NC(=O)c1ccc(N(C(N)=O)c2c(F)cccc2F)nc1-c1ccc(F)cc1F [VX-702] + Cc1nc(Nc2ncc(C(=O)Nc3c(C)cccc3Cl)s2)cc(N2CCN(CCO)CC2)n1 [Dasatinib] (partner 0.075 µM)
In short: as §1

Cell Line | relative viability (Dabrafenib + Bortezomib; first compound 0.003 µM) | relative viability (Dabrafenib + Bortezomib; first compound 0.009487 µM) | relative viability (Dabrafenib + Bortezomib; first compound 0.03 µM) | relative viability (Dabrafenib + Bortezomib; first compound 0.09487 µM) | relative viability (Dabrafenib + Bortezomib; first compound 0.3 µM) | relative viability (Dabrafenib + Pictilisib; first compound 0.003 µM) | relative viability (Dabrafenib + Pictilisib; first compound 0.009487 µM) | relative viability (Dabrafenib + Pictilisib; first compound 0.03 µM) | relative viability (Dabrafenib + Pictilisib; first compound 0.09487 µM) | relative viability (Dabrafenib + Pictilisib; first compound 0.3 µM) | relative viability (Dabrafenib + Olaparib; first compound 0.003 µM) | relative viability (Dabrafenib + Olaparib; first compound 0.009487 µM) | relative viability (Dabrafenib + Olaparib; first compound 0.03 µM) | relative viability (Dabrafenib + Olaparib; first compound 0.09487 µM) | relative viability (Dabrafenib + Olaparib; first compound 0.3 µM) | relative viability (VX-702 + Dasatinib; first compound 0.02 µM) | relative viability (VX-702 + Dasatinib; first compound 0.2 µM) | relative viability (VX-702 + Dasatinib; first compound 0.6325 µM) | relative viability (VX-702 + Dasatinib; first compound 2 µM)
NCI-H2126 | 1.1 | 1.1 | 1.12 | 1.13 | 1.15 | 0.46 | 0.514 | 0.529 | 0.543 | 0.595 | 0.906 | 0.884 | 0.871 | 0.878 | 0.946 | 0.637 | 0.542 | 0.549 | 0.573
NCI-H2228 | 0.897 | 0.829 | 0.859 | 0.912 | 1.03 | 0.331 | 0.386 | 0.415 | 0.316 | 0.483 | 0.757 | 0.464 | 0.615 | 0.439 | 0.693 | 0.466 | 0.499 | 0.461 | 0.535
NCI-H2347 | – | 1.2 | – | – | 0.84 | 0.693 | 0.6 | 0.381 | 0.57 | 0.459 | – | 0.629 | 0.552 | 0.553 | 0.599 | 0.325 | – | 0.277 | 0.294
NCI-H2405 | – | 0.91 | 0.766 | 0.867 | 0.959 | – | 0.305 | – | 0.314 | 0.316 | – | 0.838 | 0.674 | 0.804 | 0.89 | 0.259 | 0.207 | 0.228 | 0.193
NCI-H3122 | 1.04 | 1.01 | 1.12 | 1.06 | 1.1 | 0.581 | 0.629 | 0.793 | 0.692 | 0.719 | 0.631 | 0.605 | 0.647 | 0.508 | 0.562 | 0.921 | 0.84 | 0.752 | 0.789
PC-3 [JPC-3] | 0.745 | 0.9 | 0.773 | 0.875 | 0.857 | 0.642 | 0.982 | 0.916 | 0.745 | 0.818 | – | 1.24 | 1.18 | 1.07 | 1.24 | 1.03 | 1.05 | 1.07 | 1.06
PC-14 | 0.968 | 0.846 | 0.817 | 0.919 | 1.03 | 0.761 | 0.862 | 0.655 | 0.688 | 0.696 | 0.237 | 0.293 | 0.241 | 0.283 | 0.338 | 0.337 | 0.323 | 0.295 | 0.188
RERF-LC-KJ | 1.02 | 1.33 | 1.05 | 1.05 | 1.13 | 0.575 | 0.592 | 0.455 | 0.616 | 0.748 | 0.907 | 1 | 0.895 | 0.774 | 0.932 | 0.837 | 0.781 | 0.87 | 0.901
SK-LU-1 | – | 1.12 | – | 0.607 | 0.871 | – | 0.668 | 0.385 | 0.416 | 0.397 | – | 0.521 | 0.372 | 0.347 | 0.406 | 0.222 | 0.177 | 0.196 | 0.206
